Measurements as given in the CheMixHub viscosity set.
“And” between values parts separate entries of the source, which are not always exact repeats. Equal entries are not always repeated.

Test: xn = mol fraction of the nth substance listed

COCCOC + Nc1ccccc1
298.15 K, 101 kPa
Settings | viscosity [mPa·s]
x1 = 0.103 | 2.958
x1 = 0.2053 | 2.326
x1 = 0.3069 | 1.85
x1 = 0.4079 | 1.488
x1 = 0.5082 | 1.194
x1 = 0.6079 | 0.96
x1 = 0.7068 | 0.778
x1 = 0.8052 | 0.625
x1 = 0.9029 | 0.505

CCCCC(CC)COC(=O)CC(C(=O)OCC(CC)CCCC)S(=O)(=O)[O-].C[NH+]1C=CN=C1 (stereo unspecified) + O
99.6 kPa, x2 = 0.09474
Settings | viscosity [mPa·s]
293.15 K | 3381
303.15 K | 1440
313.15 K | 684
323.15 K | 359

CN(C)N + O
293.15 K, 101.3 kPa
Settings | viscosity [mPa·s]
x1 = 0.0499 | 2.05
x1 = 0.1018 | 3.64
x1 = 0.1471 | 6.22
x1 = 0.2 | 8.22
x1 = 0.2498 | 8.46
x1 = 0.2984 | 7.51
x1 = 0.3466 | 6.25
x1 = 0.3995 | 4.78
x1 = 0.4482 | 4.23
x1 = 0.4994 | 2.95
x1 = 0.5955 | 2.28
x1 = 0.6986 | 1.27
x1 = 0.8064 | 0.9
x1 = 0.8999 | 0.69

CNC(=O)NC + O
101 kPa
Settings | viscosity [mPa·s]
293.15 K, x1 = 0.000596 | 1.045
293.15 K, x1 = 0.06729 | 2.325
293.15 K, x1 = 0.08722 | 2.805
298.15 K, x1 = 0.1358 | 3.535
298.15 K, x1 = 0.2199 | 5.955
303.15 K, x1 = 0.08722 | 2.055
308.15 K, x1 = 0.11 | 2.135
308.15 K, x1 = 0.1358 | 2.545
313.15 K, x1 = 0.1358 | 2.195

C[C@H](N)C(=O)[O-].[Na+] + O
viscosity [mPa·s], 101 kPa
Settings | x1 = 0.004484 | x1 = 0.008927 | x1 = 0.01333 | x1 = 0.0177 | x1 = 0.02202 | x1 = 0.02631 | x1 = 0.03478 | x1 = 0.0431 | x1 = 0.05127
293.15 K | 1.118 | 1.239 | 1.371 | 1.526 | 1.683 | 1.856 | 2.272 | 2.747 | 3.244
303.15 K | 0.886 | 0.979 | 1.077 | 1.192 | 1.305 | 1.436 | 1.726 | 2.062 | 2.399
313.15 K | 0.722 | – | 0.871 | 0.96 | 1.046 | 1.144 | 1.372 | 1.605 | 1.851
323.15 K | 0.602 | 0.662 | 0.722 | 0.791 | 0.859 | 0.935 | 1.1 | 1.286 | 1.477

N[C@@H](Cc1ccccc1)C(=O)O + O
viscosity
Settings | 298.15 K | 303.15 K | 308.15 K | 313.15 K
100 kPa, x1 = 0.0004 | 0.8956 mPa·s | 0.8037 mPa·s | 0.7264 mPa·s | –
100 kPa, x1 = 0.0007 | 0.8984 mPa·s | 0.8062 mPa·s | 0.7289 mPa·s | 0.6638 mPa·s
100 kPa, x1 = 0.001 | 0.901 mPa·s | 0.8088 mPa·s and 0.8113 mPa·s | 0.7315 mPa·s and 0.7343 mPa·s | 0.6689 mPa·s and 0.6664 mPa·s
100 kPa, x1 = 0.0018 | 0.9067 mPa·s | 0.8139 mPa·s | – | 0.6713 mPa·s
100 kPa, x1 = 0.0022 | 0.9093 mPa·s | 0.8169 mPa·s | 0.7395 mPa·s | 0.6738 mPa·s
101 kPa, x1 = 0.00018 | 0.912 mPa·s | 0.803 mPa·s | 0.731 mPa·s | 0.658 mPa·s
101 kPa, x1 = 0.000362 | 0.919 mPa·s | 0.809 mPa·s | 0.734 mPa·s | –
101 kPa, x1 = 0.000725 | 0.927 mPa·s | 0.822 mPa·s | 0.745 mPa·s | 0.671 mPa·s
101 kPa, x1 = 0.000909 | 0.931 mPa·s | 0.825 mPa·s | 0.749 mPa·s | 0.674 mPa·s
101 kPa, x1 = 0.00109 | 0.949 mPa·s | 0.841 mPa·s | – | 0.688 mPa·s
101 kPa, x1 = 0.00146 | 0.959 mPa·s | 0.849 mPa·s | 0.767 mPa·s | 0.692 mPa·s
